The values that follow come from PubChem BioAssay AID179 (DTP/NCI, 2004).

SMILES strings stand for the structures. pEC50, pIC50: −log10 of the molar value. Activity calls are given as the source filed them.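 The calls were made as follows: active = compounds giving half or more protection of infected cells from virus-caused growth loss, again on retest; inactive = the rest.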 *1 amine or outer side, *2 acyl side, *3 side chain or, on linkers, in order; H or OH if unused. Where a SMILES comes first, the peptide text is derived from it. [ ]: non-standard residue; d: D form. The star is where a group is joined. X3 = CC(=O)N(C)SCC(N[*:1])C(=O)[*:2]; Cbz = O=C(OCc1ccccc1)*; Bn = c1ccc(C*)cc1; For = O=C*

This experiment has as its system CEM cells HIV-1 protection, formazan growth assay. Description: NCI AIDS Antiviral Assay. The settings on record: for pIC50: measured here: growth of uninfected CEM cells. In a few lines:
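Soluble formazan readout of cell growth; CEM cells ± HIV-1; 5 drug concs. ≥50% protection → retest; ≥50% again = moderately active; reproducible 100% = confirmed active.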

What is called pEC50 is the EC50 on a negative log10 scale, so that one unit is a factor of ten. The pIC50 is the negative decadic logarithm of the IC50, by convention in mol/L. A low value points to a high IC50. On to `COc1cc2ccc1OCc1cccc(n1)COc1ccc(cc1OC)C=Nc1ccc(cc1)N=C2`, for which the pEC50 was less than 3.70 and the pIC50 is less than 3.70.
In the case of `COc1ccc(NC(=O)CC/C(CC(=O)C(C)(C)C)=N\NC(=O)C(=O)NN)cc1`, the outcome was inactive.
In the case of `CC1(C)OC(=O)CC2(C)OC12` (stereo not drawn), the pEC50 is less than 3.70 and the pIC50 was less than 3.70.
For `CCOC(=O)C(CC)c1cc2n(c(=O)c1C#N)CCC21OCCO1` (stereo not drawn), the pEC50 was less than 3.70 and the pIC50 is less than 3.70.
Turning to `COc1cc(OC)c(-c2oc3ccccc3c(=O)c2O)c(OC)c1`, the result was inactive.
As for `CCCCCCCCCCCCS(=O)(=O)O`, the outcome was inactive.
Turning to `O=C(/C=C/c1ccc(Cl)cc1)c1ccc(Cl)s1`, the pEC50 is less than 3.70.
On to `CN(C)c1ccc(C(c2cc3c(cc2O)OCO3)N2CCOCC2)cc1` (stereo not drawn), for which the pEC50 is less than 4.14 and the pIC50 was 4.89.
For `COc1ccc(-c2cc[n+]([O-])c(C)c2C)c(OC)c1OC`, the pEC50 was less than 3.06 and the pIC50 was 4.08.
As to `O=C(O)/C=C\C(=O)c1ccc(Cl)cc1`, the pEC50 is less than 3.49 and the negative-log IC50 (pIC50) was 4.23.
In the case of `CC(C(=O)O)c1ccc2oc(-c3ccc(Cl)cc3)nc2c1` (stereo not drawn), the pEC50 was less than 3.70 and the pIC50 is less than 3.70.
As for `COc1ccc(C2c3cc4c(cc3OC(O)(CO)C2C(=O)O)OCO4)c(OC)c1OC` (stereo not drawn) (tested in a mixture with another compound), the result was inactive.
Take `CC1=CC(=O)N(n2c(Cc3ccc(Cl)cc3)n[nH]c2=O)C1=O`: the pEC50 was less than 3.70 and the pIC50 was less than 3.70.
With `O=C1C=C(c2[nH]c3ccccc3c2C2=CC(=O)c3ccccc3C2=O)C(=O)c2ccccc21`, the result was inactive.
With `CCCCOC(=O)OC1CCC2(C)CC3CCC2(OO3)C1(C)C` (stereo not drawn), the pEC50 is less than 3.70 and the negative-log IC50 (pIC50) is 6.01.
As for `O=C1c2ccccc2C(=C2c3ccccc3C(=O)c3ccccc32)c2ccccc21`, the result was inactive.
Consider `CC1(C)CCc2cc3c(cc2O1)OCCC3=O`, for which the result was inactive.
As to `C=CCOc1ccc(/C(N=Nc2ccccc2)=N/NC(=O)c2ccccc2)cc1OC`, the pEC50 was less than 3.70 and the pIC50 was 3.97.
In the case of `O=S(=O)(O)CCCCBr`, the pEC50 is less than 3.70 and the pIC50 is less than 3.70.
`FC(F)C(F)(F)C(F)(F)C(F)(F)C(F)(F)C(F)(F)COC(OCC(F)(F)C(F)(F)C(F)(F)C(F)(F)C(F)(F)C(F)F)OCC(F)(F)C(F)(F)C(F)(F)C(F)(F)C(F)(F)C(F)F`: the pEC50 was less than 3.70 and the pIC50 was less than 3.70.
On to `Cc1nc2c(ccc3c(C)c(C)c(C)nc32)c(C)c1C.Cc1nc2c(ccc3c(C)c(C)c(C)nc32)c(C)c1C.O=C1OC(C(O)C[O-])C(O)=C1O.[Cu+]`, for which the pEC50 was less than 4.90 and the pIC50 was 6.16.
Taken in the same sequence, the figures for `CC(O)(CCCCCl)c1nc2ccccc2s1` (stereo not drawn) were less than 3.70 and 4.22.
In the case of `Oc1cccc2c(Br)ccnc12`, the pEC50 was less than 4.70 and the pIC50 was 5.29.
As to `CC(=O)Nc1[nH]c(=O)[nH]c(=O)c1N(C(C)=O)C(C)=O`, the pEC50 was less than 3.03 and the pIC50 is less than 3.03.
With `O=c1[nH]c(Nc2cccc(C(F)(F)F)c2)nc2nc[nH]c12`, the pEC50 was less than 3.70 and the pIC50 is 4.01.
As to `Cc1cc(C)nc(NS(=O)(=O)c2ccc(NC(=O)c3cccc4c(NNc5ccc(S(=O)(=O)N=C(N)N)cc5)c5ccccc5nc34)cc2)n1`, the pEC50 was less than 4.00 and the pIC50 was 4.30.
`COCCCCCCCCCCC(=O)OCC1OC(n2cc(C)c(=O)[nH]c2=O)CC1N=[N+]=[N-]` (stereo not drawn): the result was active and the pIC50 is 3.93.
With `O=C1CSC(c2ccccc2[N+](=O)[O-])N1c1ccc(-c2ccc(-n3c(-c4ccccc4)nc4ccccc4c3=O)cc2)cc1` (stereo not drawn), the pEC50 was less than 3.70 and the pIC50 was 4.02.
In the case of `O=C1C=C(C2=C(C3=CC(=O)c4ccccc4C3=O)C(=O)c3ccccc3C2=O)C(=O)c2ccccc21`, the pEC50 is less than 4.00 and the pIC50 is 5.86.
For `Cc1ccc(Nc2nc3ccccc3nc2NS(=O)(=O)c2ccc(N)cc2)cc1`, the pEC50 was less than 3.70 and the pIC50 was 4.36.
Taken in the same sequence, the figures for `C[C@H](CCc1nc(C#N)c(N)o1)[C@H]1CC[C@H]2[C@@H]3CCC4C[C@@H](O)CC[C@]4(C)[C@H]3C[C@@H](O)[C@]12C` (stereo partly drawn) were less than 4.70 and 5.71.
As for `COC1/C=C\OC2(C)Oc3c(C)c(O)c4c(O)c(c(CN(C)C)c(O)c4c3C2=O)NC(=O)/C(C)=C\C=C/C(C)C(O)C(C)C(O)C(C)C(OC(C)=O)C1C` (stereo not drawn), the result was inactive.
Regarding `Cc1c(-c2ccccc2)c(=O)oc2c3c(ccc12)OC(C)(C)[C@H](OC(=O)C12CCC(C)(C(=O)O1)C2(C)C)[C@@H]3OC(=O)C12CCC(C)(C(=O)O1)C2(C)C` (stereo partly drawn), the pEC50 was less than 4.00 and the pIC50 was less than 4.00.
Consider `CC(C)C1COC(c2ccc3ccccc3c2-c2c(O[Si](C)(C)C(C)(C)C)ccc3ccccc23)=N1` (stereo not drawn), for which the pEC50 is less than 5.12 and the pIC50 was less than 5.12.
Regarding `Cc1nnc2scnn12`, the result was inactive.
With `O=c1c2ccccc2c(=O)n2n1CC=CC2`, the outcome was inactive.
As for `C[C@]12CCC(=O)C=C1CC[C@@H]1C2CC[C@@]2(C)C1CC[C@@H]2OC(=O)C12OC1CCC2=O` (stereo partly drawn), the pEC50 is less than 3.70 and the pIC50 is 4.97.
Taken in the same sequence, the figures for `COc1ccc(Nc2ccnc3cc(Cl)ccc23)cc1CCN` were less than 4.05 and less than 4.05.
With `O=C1c2ccccc2C(=O)C1(Cl)C1(S(=O)(=O)O)c2ccccc2-c2ccccc21`, the result was inactive.
Consider `C[C@@H](NC(=O)CNC(=O)OC(C)(C)C)C(=O)N[C@@H](Cc1ccccc1)C(=O)OCc1ccccc1` (HELM PEPTIDE1{[CC(C)(C)OC(=O)[*:2]].G.[dA].F.[c1ccc(CO[*:1])cc1]}$$$$V2.0), for which the pEC50 was less than 3.70 and the pIC50 was 4.01.
Take `COc1cc(C)cc2c1C(=O)C(Br)CC2` (stereo not drawn): the outcome was inactive.
Take `Cc1cc(Cl)n2nc(-c3ccc(Cl)cc3)nc2n1`: the pEC50 is less than 4.31 and the pIC50 was less than 4.31.
For the compound `O=C1NC(=O)C2C1N(Cc1ccccc1)C(=O)N2Cc1ccccc1` (stereo not drawn), the pEC50 was less than 3.97 and the pIC50 is less than 3.97.
`CCN(CC)C(=O)CCNC(C)Cc1c[nH]c2ccccc12` (stereo not drawn): the pEC50 was less than 3.70 and the pIC50 was less than 3.70.
Turning to `CN(c1ccc(Cl)cc1)S(=O)(=O)c1ccccc1`, the pEC50 is less than 3.70 and the pIC50 was 4.30.
Compound `CO[C@]12[C@@H](COC(=O)NCCO)C3=C(C(=O)C(C)=C(N)C3=O)N1C[C@@H]1[C@H]2N1C` (stereo partly drawn) gave a pEC50 of less than 3.70 and a negative-log IC50 (pIC50) of 4.28.
Take `Cc1cccc(N2C(=O)C(=O)C(c3nc4ccccc4s3)/C(=N/NC(=S)NN)C2=O)c1C` (stereo not drawn): the pEC50 is less than 3.57 and the pIC50 is less than 3.57.
As for `O=c1[nH][nH]c(=O)c2c1[nH]c(=S)n2-c1ccccc1`, the pEC50 is less than 3.70 and the pIC50 was less than 3.70.
On to `Cc1cc(SSc2cc(C)c3ccccc3n2)nc2ccccc12`, for which the pEC50 is less than 3.70 and the negative-log IC50 (pIC50) is 3.96.
Taken in the same sequence, the figures for `CCN(CC(O)COc1ccc2c(c1)[n+]([O-])nc(N)[n+]2[O-])C(C)=O` (stereo not drawn) were less than 3.70 and 4.63.
Taken in the same sequence, the figures for `COc1cc(N)c2nc(C(O)C(O)C(O)CO)cnc2c1` (stereo not drawn) were less than 3.07 and 3.21.
With `CC1CCC2(C)C(CC=C(C=O)C2(O)C=O)C12CO2` (stereo not drawn), the result was inactive.
Turning to `Cc1ccc2c(c1)-c1c3c(nn1C)-c1ccccc1SC3O2` (stereo not drawn), the pEC50 is less than 4.63 and the pIC50 was less than 4.63.
For `CCOC(=O)/C=C1/SC(N2CCCCC2)C(=O)N1CC` (stereo not drawn), the pEC50 is less than 3.78 and the pIC50 was less than 3.78.
With `Cn1cnc([N+](=O)[O-])c1SC1=NCCS1`, the pEC50 is less than 2.99 and the negative-log IC50 (pIC50) was 5.15.
For `S=c1cn[nH]c2c(Br)cccc12`, the pEC50 was less than 4.05 and the pIC50 was 4.17.
In the case of `Cc1nc(Nc2ccccc2)sc1C(=O)NNc1ccc([N+](=O)[O-])cc1[N+](=O)[O-]`, the pEC50 is less than 4.20 and the pIC50 was 4.42.
`COc1cccc2c1C(=O)c1c(O)c3c(c(O)c1C2=O)C[C@@](O)(C(=O)CO)C[C@@H]3OC1CC(N)C(OC)C(C)O1` (stereo partly drawn): the pEC50 was less than 6.70 and the pIC50 was 7.71.
The like results for `CC(=O)N(C)SCC(NC(=O)C(Cc1ccccc1)NC(=O)OCc1ccccc1)C(=O)NC(Cc1ccccc1)C(=O)NC(Cc1cn(C=O)c2ccccc12)C(=O)NC(CCCCNC(=O)OCc1ccccc1)C(=O)NC(C(=O)NC(CSN(C)C(C)=O)C(=O)NC(C(N)=O)C(C)OCc1ccccc1)C(C)OCc1ccccc1` (stereo not drawn) (Cbz-F[X3]FW(For)K(Cbz)T(Bn)[X3]T(Bn)-NH2; configuration not given here) were, in that order, less than 4.00 and less than 4.00.
For `[C-]#[O+].[C-]#[O+].[C-]#[O+].[Cr].c1ccc([PH+](CC[As](c2ccccc2)c2ccccc2)CC[As](c2ccccc2)c2ccccc2)cc1`, the outcome was inactive.
For `CCC(=O)NC1Cc2cc(C)cc(C)c21` (stereo not drawn), the pEC50 is less than 4.05 and the pIC50 was less than 4.05.
Consider `CC1=C(C(=O)Nc2cc(=O)n(C)c(=O)n2C)C(c2ccco2)C(C(=O)Nc2cc(=O)n(C)c(=O)n2C)=C(C)N1`, for which the pEC50 is less than 4.03 and the pIC50 was less than 4.03.
As to `COC(=O)C1C(O)CC(c2ccccn2)N(Cc2ccccc2)C1c1ccccn1` (stereo not drawn), the pEC50 is less than 4.05 and the pIC50 is 4.08.
With `COc1cccc(C2c3cc4c(cc3OC(N3CCCC3)C2C)OCO4)c1` (stereo not drawn), the pEC50 was less than 3.70 and the pIC50 was 5.42.
Consider `CCC1(CC)SCC(=O)NC1=O`, for which the pEC50 is less than 3.70 and the pIC50 was less than 3.70.
As to `O=C1c2ccccc2C(=O)C1C(c1ccc([N+](=O)[O-])cc1)C1C(=O)c2ccccc2C1=O`, the pEC50 is less than 5.35 and the pIC50 is less than 5.35.
With `COc1cc2c3c(c1OCc1ccccc1)NCCC3NCC2` (stereo not drawn), the result was inactive.
